Experimental data taken from patent US6540991B2, “Stabilized active materials” (3M Innovative Properties Company, priority 2001, dated 2003).

Assay: typical duration of codlemone in the intended environment (stabilization of insect pheromone)
Format: physicochemical
Details: dissipation into the intended environment; codling moth pheromone, nonstabilized vs stabilized with 2,2′-Methylenebis(6-t-butyl-p-cresol)
Source text: Because the insect pheromone can be provided in a stabilized format, a long lasting delivery system may be engineered to provide slow release over a long duration of time. The stabilized format allows for a slow release from a single application without spiking as may be obtainable from multiple applications. “Spiking” as used herein may be triggered by instantaneous or short-term release of the active agents from the shell. Since a mating cycle of a given insect pest may last up to 4-6 weeks in length, the slow release of an insect pheromone may be desirable to provide effective control of insect mating over the duration. Thus, the present invention may be used to control the release rate of insect pheromones thereby effectively controlling and disrupting the mating behavior of the species in a particular intended environment. For example, an insect pheromone for codling moth can be made to steadily dissipate into the intended environment over the duration of a mating cycle for codling moth. A typical duration for a nonstabilized codlemone, the insect pheromone for the codling moth is less than 1 week, as against about 6 weeks for codlemone stabilized according to the present invention.

Question: With `C/C=C/C=C/CCCCCCCO` [nonstabilized codlemone, E,E-8,10 C12 alcohol] as the compound, how does the typical duration read?
Answer: The typical duration was “less than 1 week”.
